Assay results as given in patent US12329738B2, “Urolithin A and a composition containing same for external use in inflammations of various etiologies” (WARSZAWSKI UNIWERSYTET MEDYCZNY, priority 2018, dated 2025).

Tests used:
[1] = system: Wistar rats (DNCB-induced atopic dermatitis); assay: Ear thickness (edema) in DNCB-induced atopic dermatitis rat model; format: in vivo
Experimental: It is similar to the indications for use of hydrocortisone, which was used as a positive control in the study. Urolitin A was obtained by synthesis according to Bialonska et al. (Bialonska et al., 2009) or purchased from Sigma-Aldrich. The ointment containing urolithin A was prepared by emulsifying the weighed substance into a solid vehicle (white petrolatum) using an unguator. Wistar rats aged 5-6 weeks (at the start of the experiment) kept under standard conditions with free access to feed and water were used for the tests. The animals were divided into 5 groups, 8 individuals in each group. To prepare 2,4-dinitrochlorobenzene (DNCB) composition inducing inflammation, DNCB was dissolved in 70% ethanol to a final concentration of 1.5% (w/v). Therapeutic composition was an ointment based on white petrolatum with 0.2% or 1.0% urolithin A added. The control ointment was white petrolatum without addition of urolithin A. The induction of chronic atopic dermatitis involved local 9-fold infiltration with 60 μl 1.5% 2,4-dinitrochlorobenzene (DNCB) on each (external and internal) surface of the right ear over 3 weeks (3 times a week). Negative control was the right ear of rats without induction inflammation. Treatment of atopic dermatitis with 0.2% or 1.0% urolithin composition and white petrolatum (control) or 1.0% hydrocortisone composition (positive control) was started eight days after sensitization—one day before the fourth application of DNCB. Ointments with appropriate for given group drug added were applied in a total volume of about 20 μl to each ear surface one day before and 6 hours after each DNCB application (for a period of 3 weeks). The negative control group consisted of rats without induced inflammation and treated with white petrolatum in a regimen analogous to the composition of urolithin A or hydrocortisone. Ear thickness was assessed using an electronic mini caliper the day before inflammation was induced (day 0) and then on days 4 and 8 prior to treatment and on days 4, 8, 12, 16, […] of therapy with urolithin A composition (on days 12, 16, 20, 24, 28 and 32 after inflammation inducing, respectively). The experimental results obtained were analyzed using the Statistica 7.1 program (StatSoft, Inc., Tulsa, OK, USA) and presented as mean values±SE. Statistical significance was set at P≤0.05. The results with established normal distribution in the D'Agostin and Pearson test were prepared using two- or three-factor analysis of variance (ANOVA). Parametric post-hoc analysis for individual time points was performed using the Bonferroni test.

[2] = system: Wistar rats (DNCB-induced atopic dermatitis); assay: Histologic assessment of ear skin in atopic dermatitis rat model; format: in vivo; conditions: lesions treated with the composition of urolithin A; day 32; FIG. 8
Experimental: Wistar rats aged 5-6 weeks (at the start of the experiment) kept under standard conditions with free access to feed and water were used for the tests. The animals were divided into 5 groups, 8 individuals in each group. To prepare 2,4-dinitrochlorobenzene (DNCB) composition inducing inflammation, DNCB was dissolved in 70% ethanol to a final concentration of 1.5% (w/v). Therapeutic composition was an ointment based on white petrolatum with 0.2% or 1.0% urolithin A added. The control ointment was white petrolatum without addition of urolithin A. The induction of chronic atopic dermatitis involved local 9-fold infiltration with 60 μl 1.5% 2,4-dinitrochlorobenzene (DNCB) on each (external and internal) surface of the right ear over 3 weeks (3 times a week). Negative control was the right ear of rats without induction inflammation. Treatment of atopic dermatitis with 0.2% or 1.0% urolithin composition and white petrolatum (control) or 1.0% hydrocortisone composition (positive control) was started eight days after sensitization—one day before the fourth application of DNCB. Ointments with appropriate for given group drug added were applied in a total volume of about 20 μl to each ear surface one day before and 6 hours after each DNCB application (for a period of 3 weeks). […]

[3] = system: NHDF fibroblasts (human normal skin fibroblasts); conditions: comparative studies by the inventors
Experimental: NHDF fibroblasts (human normal skin fibroblasts) were cultured in the DMEM medium supplemented with 10% FBS and a mixture of antibiotics—penicillin and streptomycin at 37° C., 5% CO2. […] After incubation with the compounds, the cells were washed twice with warm medium. The effect on cell viability was assessed using a standard MTT test.

ERK1/2 = ERK1/2 phosphorylation in THP-1 derived macrophages (Western blotting); format: cell-based, human; conditions: 40 μM; LPS 10 ng/mL, 35 min; FIG. 15
Experimental: Monocytes of the THP-1 line were cultured in RPMI 1640 medium supplemented with 10% FBS and 2 mM glutamine. For transformation of monocytes into macrophages, the cells were treated with 12.5 ng/mL PMA (phorbol 12-myristate 13-acetate) for 48 hours, then washed and incubated for 24 hours in a culture medium without PMA. After this time, urolithin A, urolithin B, iso-urolithin A and the corresponding glucuronides (GUA, GUB and GiUA) were added to the cells at a concentration of 40 μM. After 1 hour of incubation with the compounds, the cells were stimulated with LPS from Escherichia coli (10 ng/mL). To assess the level of TNF-alpha production, the cells were incubated for 6 hours, to assess the expression of mRNA for TNF-alpha, the cells were incubated for 24 hours, to assess the effect on ERK1/2 phosphorylation, the cells were incubated for 35 minutes. […] The obtained results of experiments on in vitro models were analyzed using the Statistica 13 program (StatSoft, Inc., Tulsa, OK, USA) and presented as mean values±SEM. Statistical significance was set at P≤0.05. The results with established normal distribution in the D'Agostin and Pearson test were prepared using analysis of variance (ANOVA). Parametric post-hoc analysis was performed using Dunnett's test.

TNF-alpha = TNF-alpha production by macrophages from human peripheral blood monocytes (ELISA); format: cell-based; conditions: 40 μM; LPS 100 ng/mL, 24 h; FIG. 16
Experimental: Monocytes were isolated from peripheral human blood by a standard method using dextran sedimentation and Ficoll Hypaque gradient centrifugation. After isolation, monocytes were suspended in RPMI 1640 medium supplemented with L-glutamine, HEPES, streptomycin, amphotericin and gentamicin, and 20% autologous serum. Cell culture was carried out under these conditions for 7 days. […] After 24h, TNF-alpha level in the medium was determined using the immunochemical ELISA method (BD biosciences). The obtained results of experiments on in vitro models were analyzed using the Statistica 13 program (StatSoft, Inc., Tulsa, OK, USA) and presented as mean values±SEM. Statistical significance was set at P≤0.05. The results with established normal distribution in the D'Agostin and Pearson test were prepared using analysis of variance (ANOVA). Parametric post-hoc analysis was performed using Dunnett's test.

[4] = Thermal, acid and UV stability of urolithin A (UPLC-DAD-MS); format: physicochemical; conditions: 80 μM in deionized water or 1M HCl, 24 hours at 37° C. or 12 hours at 80° C.; UVA 365 nm 12 hours
Experimental: Urolithin A at 80 μM was suspended in deionized water or 1M HCl and incubated for 24 hours at 37° C. or for 12 hours at 80° C. The urolithin A solution was also irradiated for 12 hours with a UV lamp emitting UVA radiation with the maximum at 365 nm. The concentration of urolithin A after incubation was determined using the UPLC-DAD-MS method according to Piwowarski et al. 2016.

[5] = system: carrageenan-induced paw edema in mice; conditions: oral administration one hour after induction of edema, next 24 hours; cited from earlier work

O=c1oc2cc(O)ccc2c2ccc(O)cc12 [urolithin A]
Ear edema, comparison of urolithin doses with each other ([1]; 0.2% vs 1%, p<0.05): more effective at a concentration of 1% | Time profile of anti-edema effect, urolithin A vs. hydrocortisone ([1]; later treatment period (from day 12 to 28 of treatment), dose 0.2 and 1%, p<0.01): more effective in the later treatment period | Ear edema (ear thickness) after local therapy ([1]; topical ointment in white petrolatum, urolithin A 0.2 and 1.0%, hydrocortisone 1%, urolithin A p<0.001, hydrocortisone p<0.01): reduced | Anti-inflammatory (ear edema) effect compared to hydrocortisone 1% ([1]; urolithin A 0.2% ointment): absence of significantly greater efficiency | Anti-inflammatory (ear edema) effect compared to hydrocortisone 1% ([1]; urolithin A 1% ointment, p<0.05): significantly greater anti-inflammatory effect compared to hydrocortisone | Ear edema reduction, urolithin vs. hydrocortisone (2-factor ANOVA) ([1]; urolithin A (both doses) vs. 1% hydrocortisone, p<0.05): stronger | Histology of skin lesions [2]: Mild epidermal hyperplasia, infiltration of mononuclear cells (mast cells) and neutrophils. A slight infiltration of inflammatory cells around the blood vessels | Antiproliferative activity on human skin fibroblast cells [3]: neither urolithin A, nor 8-acetyl-urolithin A, nor 3-acetyl-urolithin A showed antiproliferative activity | ERK1/2 kinase phosphorylation in THP-1 derived macrophages (ERK1/2): stimulation of ERK1/2 kinase phosphorylation | Inhibition of TNF-alpha production by macrophages from human peripheral blood monocytes (TNF-alpha): most active compound | Stability (degradation / change in chemical structure) [4]: stable | Carrageenan-induced paw edema size [5]: significantly reduced its size
